# Experimental data: US7732412B2, “Methods of treatment using novel LHRH antagonists having improved solubility properties” (Zentaris GmbH, priority 1999, dated 2010)
# Numbered stars: 1 amine (or outer) side, 2 acyl side, 3 side chain; on linkers, the order of the positions; unused ones are H or OH. Square brackets hold non-standard residues; d marks the D form. Side chains are listed from the residue outwards. Peptide text beside a SMILES is read from it. * marks the point of attachment. Triazole(1,2,4-3-CO,5-NH) = O=C(c1n[nH]c(N[*:1])n1)[*:2]; Propanoyl(3-(4-F-phenyl)) = O=C(CCc1ccc(F)cc1)*; NH(4-amidinophenyl) = N=C(N)c1ccc(N*)cc1; dPhe(4-Cl) = N[C@H](Cc1ccc(Cl)cc1)C(=O)O; d1Nal = N[C@H](Cc1cccc2ccccc12)C(=O)O; d2Nal = N[C@H](Cc1ccc2ccccc2c1)C(=O)O; d(hCit) = NC(=O)NCCCC[C@@H](N)C(=O)O; Lys(iPr) = CC(C)NCCCC[C@H](N)C(=O)O; NMeY = CN[C@@H](Cc1ccc(O)cc1)C(=O)O; d3Pal = N[C@H](Cc1cccnc1)C(=O)O; Suc = O=C(CCC(=O)[*:2])[*:1]; Nle = CCCC[C@H](N)C(=O)O; Sar = CNCC(=O)O
# What was measured:
# human LHRH receptor = molecular target: T1, human LHRH receptor (Homo sapiens, UniProt P30968); experiment: functional assay for antagonistic activity, fos-Luc luciferase reporter gene, stimulation with 1 nM [D-Trp6] LHRH; format: cell-based; parameters: expressed in transfected cells; conditions: cells stimulated with 1 nM [D-Trp6] LHRH for 6 h; bracket = number of independent experiments
# T1 sequence (P30968 1-328): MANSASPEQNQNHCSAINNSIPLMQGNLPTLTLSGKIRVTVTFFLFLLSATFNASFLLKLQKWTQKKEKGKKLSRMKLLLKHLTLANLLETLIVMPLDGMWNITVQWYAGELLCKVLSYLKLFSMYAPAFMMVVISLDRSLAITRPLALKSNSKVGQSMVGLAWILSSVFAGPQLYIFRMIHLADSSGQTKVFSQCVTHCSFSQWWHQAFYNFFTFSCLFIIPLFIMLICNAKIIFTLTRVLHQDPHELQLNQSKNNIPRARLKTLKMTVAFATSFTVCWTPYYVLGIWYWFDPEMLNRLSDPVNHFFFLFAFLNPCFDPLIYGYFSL
# Protocol: The assay for the functional characterization of antagonistic analogs of LH-RH was carried out, with some modifications, as described in Beckers et al., “Characterization of gonadotropin-releasing hormone analogs based on a sensitive cellular luciferase reporter gene assay” (1997) Analyt. Biochem. 251, 17-23. The assay uses a reporter gene made by fusing the c-fos immediate-early gene promoter to a DNA sequence encoding luciferase (Luc). A recombinant cell line that expresses the human LH-RH. receptor is stably transfected with the fos-Luc reporter gene. Transcription of the fos-Luc fusion gene and synthesis of the Luc protein is induced in the cells in a dose-dependent manner by LH-RH and other LH-RH agonists that bind and signal through the human LH-RH receptor. Peptide LH-RH antagonists such as the compounds of the invention bind to cellular LH-RH receptors and inhibit this stimulation. The antagonistic potency (IC50) of peptide LH-RH antagonists as determined by the assay generally correlates well with the binding affinity (KD) of the LH-RH antagonists for LH-RH receptor as determined from ligand binding experiments.
# Cells containing the fos-Luc reporter gene that express the human LH-RH receptor were cultured for 24 h in microtitre plates using DMEM with additives and 1% (v:v) FCS (10,000 cells per well). The cells were then stimulated with 1 nM [D-Trp^6] LHRH for 6 h. Peptide LH-RH antagonist compounds according to the invention were added before the stimulation, and the cells were lysed at the end for quantification of the cellular Luc activity. The calculation of the IC50 values from dose-effect curves was carried out by non-linear regression analysis using the Hill model (Programme EDX 2.0 from C. Grunwald, Arzneimittelwerk Dresden).
# The quantification of the Luc activity was carried out in duplicate essentially as described (Promega Technical Bulletins #101/161) using the respective luciferase assay system (Promega E4030). Owing to addition of coenzyme A (CoA), an oxidation of luciferyl-CoA takes place with advantageous kinetics. After the removal of the culture medium from the microtitre plate, the cells were lysed by addition of 100 μl of lysis buffer (25 mM tris-phosphate pH 7.8, 2 mM dithiothreitol, 2 mM 1,2-diaminocyclohexane-N,N,N′,N′-tetraacetic acid (CDTA), 10% (v:v) glycerol, 1% (v:v) Triton X-100). After incubation at room temperature for 15 min, 10 μl of cell lysate were transferred into a white microtitre plate suitable for luminometric detection (Dynatech). The enzymatic reaction was initiated by addition of 50 μl of assay buffer (20 mM tricine pH 7.8, 1.07 mM (MgCO3)4Mg(OH)2, 2.67 mM MgSO4, 0.1 mM ethylene-diaminetetraacetic acid (EDTA), 33.3 mM dithiothreitol, 270 μM coenzyme A, 470 μM glow-worm (Photinus pyralis) luciferin, 530 μM rATPNa2). After one minute, the luminescence was determined for a total time of one second with a signal half-life of five minutes using the EG&G Berthold MicroLumat LB 96 P.
# [1] = tested on: patients who suffer from prostate carcinoma; experiment: second clinical trial in prostate carcinoma, 13 patients, testosterone; format: in vivo, human
# Protocol: (§1) The following data are derived from two clinical studies comprising 14 and 13 patients, respectively, who suffer from prostate carcinoma and who were treated with the compound of the invention having the formula: Ac-D-Nal(2)^1-D-Cpa^2-D-Pal(3)^3-Ser^4-N-Me-Tyr^5-D-Hci^6-Nle^7-Arg^8-Pro^9-D-Ala^10-NH2 (Ozarelix)
# In the second clinical trial patients were given a single im. injection of 130 mg Ozarelix on day 1. Patients were re-treated after a waiting period of 4 weeks, and this 4 week period is considered as a treatment “Cycle”. Accordingly, dosage of 130 mg of Ozarelix was again provided to the patients in the first four week cycle of treatment (Cycle 1).
# Seven out of these 13 patients were subsequently administered 130 mg Ozarelix per i.m. injection on day 29, whereas the other six patients received 100 mg Ozarelix on day 29 (Cycle 2). This schedule was repeated on day 57 accordingly (Cycle 3).
# As for the administration days, testosterone levels were always determined before application of Ozarelix to the patients.
# [2] = tested on: patients who suffer from prostate carcinoma; experiment: first clinical trial in prostate carcinoma, 14 patients, testosterone and PSA; format: in vivo, human
# Protocol: as §1
# In the first clinical trial, patients were given i.m. injections of 65 mg Ozarelix on day 1 followed by another 65 mg i.m. injection on day 2. Patients were re-treated after a waiting period of 4 weeks. This 4 week period of treatment is referred to as a treatment “cycle”. Accordingly, dosage of 130 mg of Ozarelix was provided to the patients in the first four week cycle of treatment (Cycle 1).
# Six out of these 14 patients were subsequently administered 65 mg Ozarelix per i.m. injection on day 29 and day 30 each, whereas the other eight patients only received 65 mg Ozarelix on day 29 (Cycle 2). This schedule was repeated on day 57/58 accordingly (Cycle 3).
# As for the administration days, testosterone levels were always determined before application of ozarelix to the patients. In addition, mean change of Prostate Specific Antigen (PSA) levels were monitored 4-weekly over a period of 12 weeks. The percent change of PSA shown is the mean value for all treated patients and refers to the normalized individual baseline PSA levels before first Ozarelix administration.
compound,measurement,setting,value
"CCCC[C@H](NC(=O)[C@@H](CCCCNC(=O)CCC(=O)Nc1ccc(C(=N)N)cc1)NC(=O)[C@H](Cc1ccc(O)cc1)N(C)C(=O)[C@H](CO)NC(=O)[C@@H](Cc1cccnc1)NC(=O)[C@@H](Cc1ccc(Cl)cc1)NC(=O)[C@@H](Cc1ccc2ccccc2c1)NC(C)=O)C(=O)N[C@@H](CCCCNC(C)C)C(=O)N1CCC[C@H]1C(=O)N(C)CC(N)=O [Example 9, Ac-D-Nal(2)^1-D-Cpa^2-D-Pal(3)^3-Ser^4-N-Me-Tyr^5-D-Lys(B)^6-Nle^7-Lys(iPr)^8-Pro^9-Sar^10-NH2] (Ac-[d2Nal][dPhe(4-Cl)][d3Pal]S[NMeY][dK]([Suc-NH(4-amidinophenyl)])[Nle][Lys(iPr)]P[Sar]-NH2)",IC50,human LHRH receptor,4.7 nM
"CCCC[C@H](NC(=O)[C@@H](CCCCNC(N)=O)NC(=O)[C@H](Cc1ccc(O)cc1)N(C)C(=O)[C@H](CO)NC(=O)[C@@H](Cc1cccnc1)NC(=O)[C@@H](Cc1ccc(Cl)cc1)NC(=O)[C@@H](Cc1ccc2ccccc2c1)NC(C)=O)C(=O)N[C@@H](CCCNC(=N)N)C(=O)N1CCC[C@H]1C(=O)N[C@H](C)C(N)=O [Example 1, Ac-D-Nal(2)^1-D-Cpa^2-D-Pal(3)^3-Ser^4-N-Me-Tyr^5-D-Hci^6-Nle^7-Arg^8-Pro^9-D-Ala^10-NH2] (Ac-[d2Nal][dPhe(4-Cl)][d3Pal]S[NMeY][d(hCit)][Nle]RP[dA]-NH2)",Testosterone (mean),"[1]; Day 2, single 130 mg i.m. on day 1, re-treated day 29 and 57 (130 or 100 mg), pre-dose day 1 3.9 ng/mL",0.4 ng/mL
same,Testosterone (mean),"[1]; Day 3, second trial, 130 mg i.m. on day 1",0.3 ng/mL
same,Testosterone (mean),"[1]; Day 8, second trial",0.1 ng/mL
same,Testosterone (mean),"[1]; Day 15, second trial",0.1 ng/mL
same,Testosterone (mean),"[1]; Day 22, second trial",0.1 ng/mL
same,Testosterone (mean),"[1]; Day 29, before application, second trial",0.2 ng/mL
same,Testosterone (mean),"[1]; Day 36, second trial",0.1 ng/mL
same,Testosterone (mean),"[1]; Day 43, second trial",0.1 ng/mL
same,Testosterone (mean),"[1]; Day 50, second trial",0.1 ng/mL
same,Testosterone (mean),"[1]; Day 57, before application, second trial",0.2 ng/mL
same,Testosterone (mean),"[1]; Day 64, second trial",0.1 ng/mL
same,Testosterone (mean),"[1]; Day 71, second trial",0.1 ng/mL
same,Testosterone (mean),"[1]; Day 78, second trial",0.1 ng/mL
same,Testosterone (mean),"[1]; Day 85, second trial",0.3 ng/mL
same,testosterone values of all patients,"[1]; afterwards (after day 3), second trial",< 0.5 ng/mL
same,treated patients hormonally castrated (testosterone <0.5 ng/mL),"[1]; day 2 (24 hours post-dose), second trial",69%
same,treated patients hormonally castrated (testosterone <0.5 ng/mL),"[1]; day 3 (48 hours post-dose), second trial",100%
same,IC50,human LHRH receptor,0.242 nM
same,PSA levels over the monitoring period,"[2]; 12 weeks, first trial",significantly reduced
same,Testosterone (mean),"[2]; Day 2, 65 mg i.m. on day 1 and 2, re-treated day 29(/30) and 57(/58), pre-dose day 1 4.4 ng/mL",0.6 ng/mL
same,Testosterone (mean),"[2]; Day 3, first trial, 65 mg i.m. on day 1 and 2",0.3 ng/mL
same,Testosterone (mean),"[2]; Day 8, first trial",0.2 ng/mL
same,Testosterone (mean),"[2]; Day 15, first trial",0.1 ng/mL
same,Testosterone (mean),"[2]; Day 22, first trial",0.1 ng/mL
same,Testosterone (mean),"[2]; Day 29, before application, first trial",0.2 ng/mL
same,"PSA [% change] (mean, versus individual baseline)","[2]; Day 29, first trial",−77 % change
same,Testosterone (mean),"[2]; Day 36, first trial",0.1 ng/mL
same,Testosterone (mean),"[2]; Day 43, first trial",0.1 ng/mL
same,Testosterone (mean),"[2]; Day 50, first trial",0.1 ng/mL
same,Testosterone (mean),"[2]; Day 57, before application, first trial",0.1 ng/mL
same,"PSA [% change] (mean, versus individual baseline)","[2]; Day 57, first trial",−88 % change
same,Testosterone (mean),"[2]; Day 64, first trial",0.1 ng/mL
same,Testosterone (mean),"[2]; Day 71, first trial",0.1 ng/mL
same,Testosterone (mean),"[2]; Day 78, first trial",0.1 ng/mL
same,"PSA [% change] (mean, versus individual baseline)","[2]; Day 85, first trial",−89 % change
same,Testosterone (mean),"[2]; Day 85, first trial",0.3 ng/mL
same,testosterone values of all patients,"[2]; afterwards (after day 3), first trial",< 0.5 ng/mL
same,treated patients hormonally castrated (testosterone <0.5 ng/mL),"[2]; day 2 (24 hours post-dose), first trial",57%
same,treated patients hormonally castrated (testosterone <0.5 ng/mL),"[2]; day 3 (48 hours post-dose), first trial",79%
"CCCC[C@H](NC(=O)[C@@H](CCCCNC(=O)CCC(=O)Nc1ccc(C(=N)N)cc1)NC(=O)[C@H](Cc1ccc(O)cc1)N(C)C(=O)[C@H](CO)NC(=O)[C@@H](Cc1cccnc1)NC(=O)[C@@H](Cc1ccc(Cl)cc1)NC(=O)[C@@H](Cc1ccc2ccccc2c1)NC(C)=O)C(=O)N[C@@H](CCCNC(=N)N)C(=O)N1CCC[C@H]1C(=O)N(C)CC(N)=O [Example 7, Ac-D-Nal(2)^1-D-Cpa^2-D-Pal(3)^3-Ser^4-N-Me-Tyr^5-D-Lys(B)^6-Nle^7-Arg^8-Pro^9-Sar^10-NH2] (Ac-[d2Nal][dPhe(4-Cl)][d3Pal]S[NMeY][dK]([Suc-NH(4-amidinophenyl)])[Nle]RP[Sar]-NH2)",IC50,human LHRH receptor,1.3 nM
"CC(C)C[C@H](NC(=O)[C@@H](CCCCNC(=O)c1nc(N)n[nH]1)NC(=O)[C@H](Cc1ccc(O)cc1)N(C)C(=O)[C@H](CO)NC(=O)[C@@H](Cc1cccc2ccccc12)NC(=O)CCc1ccc(F)cc1)C(=O)N[C@@H](CCCNC(=N)N)C(=O)N1CCC[C@H]1C(=O)N[C@H](C)C(N)=O [Example 6, 3-(4-Fluorophenyl)propionyl-D-Nal(1)^1-Ser^4-N-Me-Tyr^5-D-Lys (Atz)^6-Leu^7-Arg^8-Pro^9-D-Ala^10-NH2] ({Propanoyl(3-(4-F-phenyl))}-[d1Nal]S[NMeY][dK](Triazole(1,2,4-3-CO,5-NH))LRP[dA]-NH2)",IC50,human LHRH receptor,0.221 nM
"CCCC[C@H](NC(=O)[C@@H](CCCCNC(=O)CCC(=O)Nc1ccc(C(=N)N)cc1)NC(=O)[C@H](Cc1ccc(O)cc1)N(C)C(=O)[C@H](CO)NC(=O)[C@@H](Cc1cccnc1)NC(=O)[C@@H](Cc1ccc(Cl)cc1)NC(=O)[C@@H](Cc1ccc2ccccc2c1)NC(C)=O)C(=O)N[C@@H](CCCNC(=N)N)C(=O)N1CCC[C@H]1C(=O)N[C@H](C)C(N)=O [Example 8, Ac-D-Nal(2)^1-D-Cpa^2-D-Pal(3)^3-Ser^4-N-Me-Tyr^5-D-Lys(B)^6-Nle^7-Arg^8-Pro^9-D-Ala^10-NH2] (Ac-[d2Nal][dPhe(4-Cl)][d3Pal]S[NMeY][dK]([Suc-NH(4-amidinophenyl)])[Nle]RP[dA]-NH2)",IC50,human LHRH receptor,1.4 nM
